Measured values from PMC10870767, “Extraction, Purification, and Characterization of Olive (Olea europaea L., cv. Chemlal) Polyphenol Oxidase” (Journal of Agricultural and Food Chemistry, 2024).
Values joined by “and” are separate entries in the source; they are usually repeats but may differ in a detail not shown here. Equal values may be shown once. Read-outs that look alike come from different tables or passages of the source.

Tests used:
OePPO1 = assay: Effect of metal ions on OePPO1 activity; assay type: biochemical, Olea europaea L., cv. Chemlal
mango PPO = conditions: cited from earlier work; for residual activity: 10 mM inhibitor
blueberry PPO = test system: blueberry PPO; parameters: method as in PMID 27719900; conditions: cited from earlier work
apricot PPO = conditions: cited from earlier work; for residual activity: 10 mM inhibitor
[1] = target: T1, olive polyphenol oxidase (OePPO) (Olea europaea, UniProt A0A8S0TLT4); assay: Effect of inhibitors on OePPO activity; assay type: biochemical, Olea europaea L., cv. Chemlal; conditions: 10 mM catechol; for IC100: read-out: concentration for complete suppression/inhibition of OePPO activity
Procedure: (§1) OePPO activity measurements were carried out spectrophotometrically at 25 °C using a 96-well microplate reader (Infinite M200, Tecan). The assay mixture, with a volume of 200 μL, was monitored for the increase in absorbance at 410 nm as the enzyme converted catechol, starting from ∼25 s after mixing (time required for pipetting and initiating the microplate reader) and continuing until the reaction curve reached a plateau phase (after ∼15 min). The standard reaction mixture consisted of 0.5 μg of enzyme and 10 mM catechol in 50 mM sodium phosphate buffer (pH 7.5) along with the optimal concentration of SDS (5 mM) as determined. […] OePPO activity was assessed by calculating the slope of the initial linear segment of the experimental curves, where the absorbance was plotted against time. The activity was expressed in U/mg, with one unit of enzymatic activity (U) defined as the amount of enzyme that catalyzed the formation of 1 μmol of quinones per minute (1 U = 1 μmol/min). All experiments were conducted in triplicate, and the protein concentrations in the enzyme solutions were determined using the Bradford method[15] with bovine serum albumin as a standard.
The optimum concentration range for each inhibitor was established through preliminary experiments (data not shown). OePPO activity was measured using the same assay conditions previously described, and the results were expressed as the percentage of residual activity relative to the control mixture (100%) without inhibitors. The half inhibitory concentration (IC50) was determined for each inhibitor using nonlinear regression.

[2] = target: T1, olive polyphenol oxidase (OePPO); assay: Effect of SDS on OePPO activity (activation of latent enzyme); assay type: biochemical, Olea europaea L., cv. Chemlal
Procedure: as §1
The effect of different concentrations of SDS (0–100 mM) on OePPO activity was investigated.

banana PPO = test system: banana PPO; parameters: method as in doi:10.1021/jf980473d; conditions: cited from earlier work
[3] = target: T1, olive polyphenol oxidase (OePPO); assay: Enzyme kinetics and substrate specificity of purified OePPO; assay type: biochemical, Olea europaea L., cv. Chemlal; conditions: for kcat: substrate of purified OePPO, 50 mM sodium phosphate buffer pH 7.5, 5 mM SDS, 25 °C
Procedure: as §1

[4] = 1 mM metal salt, 50 mM sodium citrate buffer, 5 mM SDS, control without metal ions = 100%
[5] = 5 mM metal salt, 50 mM sodium citrate buffer, 5 mM SDS, control without metal ions = 100%
[6] = 10 mM metal salt, 50 mM sodium citrate buffer, 5 mM SDS, control without metal ions = 100%
[7] = 100 mM metal salt, 50 mM sodium citrate buffer, 5 mM SDS, control without metal ions = 100%

T1 sequence (A0A8S0TLT4 entry or part of it): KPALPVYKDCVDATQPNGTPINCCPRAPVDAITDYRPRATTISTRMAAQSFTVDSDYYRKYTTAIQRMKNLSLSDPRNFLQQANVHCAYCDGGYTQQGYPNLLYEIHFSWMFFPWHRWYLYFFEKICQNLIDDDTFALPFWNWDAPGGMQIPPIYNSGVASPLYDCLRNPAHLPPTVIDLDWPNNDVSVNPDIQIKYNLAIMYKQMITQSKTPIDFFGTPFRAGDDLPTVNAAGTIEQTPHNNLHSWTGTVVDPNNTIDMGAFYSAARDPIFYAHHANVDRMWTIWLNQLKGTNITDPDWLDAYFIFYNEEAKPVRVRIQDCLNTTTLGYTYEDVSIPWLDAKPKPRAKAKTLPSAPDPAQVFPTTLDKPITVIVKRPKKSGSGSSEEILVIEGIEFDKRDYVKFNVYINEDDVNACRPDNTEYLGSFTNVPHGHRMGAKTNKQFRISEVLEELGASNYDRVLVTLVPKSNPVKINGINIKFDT

SMILES | relative activity (OePPO1; [4]) [%] | relative activity (OePPO1; [5]) [%] | relative activity (OePPO1; [6]) [%] | relative activity (OePPO1; [7]) [%] | also measured
[Cl][Al]([Cl])[Cl] [AlCl3] | 98 ± 1.9 | 90 ± 1.2 | 82 ± 2.7 | 0.0 ± 0.00 | 
[Ca+2].[Cl-].[Cl-] [CaCl2] | 103 ± 2.0 | 96 ± 2.8 | 93 ± 2.9 | 66 ± 4.1 | 
[Cl][Cr]([Cl])[Cl] [CrCl3] | 80 ± 2.8 | 63 ± 1.6 | 0.0 ± 0.00 | 0.0 ± 0.00 | relative activity (OePPO1; 1 mM metal salt, 50 mM sodium citrate buffer, 5 mM SDS, control without metal ions = 100%, listed as Cr^3+): 80%; relative activity (OePPO1; 10 mM metal salt, 50 mM sodium citrate buffer, 5 mM SDS, control without metal ions = 100%, listed as Cr^3+): complete suppression
O=S(=O)([O-])[O-].[Cu+2] [CuSO4] | 106 ± 4.3 | 112 ± 1.9 | 110 ± 3.9 | 37 ± 2.6 | relative activity (OePPO1; 5 mM metal salt, 50 mM sodium citrate buffer, 5 mM SDS, control without metal ions = 100%, listed as Cu^2+): 112%; relative activity (OePPO1; 100 mM metal salt, 50 mM sodium citrate buffer, 5 mM SDS, control without metal ions = 100%, listed as Cu^2+): drastically reduced
[Cl][Fe][Cl] [FeCl2] | 87 ± 2.3 | 74 ± 1.7 | 56 ± 2.0 | 22 ± 6.6 | relative activity (OePPO1; 1 mM metal salt, 50 mM sodium citrate buffer, 5 mM SDS, control without metal ions = 100%, listed as Fe^2+): 87%
[Cl-].[K+] [KCl] | 98 ± 3.8 | 98 ± 1.4 | 96 ± 2.1 | 64 ± 2.8 | 
O=c1cc(CO)occ1O [Kojic acid, kojic acid] |  |  |  |  | inhibition of enzymatic browning (mango PPO; 10 mM): effectively inhibiting enzymatic browning
N[C@@H](CS)C(=O)O [L-cysteine] |  |  |  |  | concentration with complete inhibitory effect (mango PPO): around 1 mM; concentration with complete inhibitory effect (blueberry PPO): around 1 mM; concentration with complete inhibitory effect (apricot PPO): around 1 mM
[Cl-].[Cl-].[Mg+2] [MgCl2] | 100 ± 2.7 | 97 ± 1.4 | 95 ± 1.8 | 72 ± 3.4 | 
[Cl][Mn][Cl] [MnCl2] | 99 ± 2.1 | 92.1 ± 0.84 | 60 ± 3.2 | 0.0 ± 0.00 | 
NC(=S)Nc1ccccc1 [N-phenylthiourea] |  |  |  |  | concentration that completely inhibited enzymatic activity ([1]; pH 7.5, 5 mM SDS): 50 µM
[Cl-].[Na+] [NaCl] |  |  |  |  | relative activity (OePPO1): 101 ± 3.1% and 99 ± 2.3% and 103 ± 2.8% and 88 ± 5.4%
O=S(=O)([O-])[O-].[Ni+2] [NiSO4] | 103 ± 2.3 | 101.3 ± 0.57 | 92 ± 1.7 | 88 ± 4.3 | 
CCCCCCCCCCCCOS(=O)(=O)[O-].[Na+] [SDS, sodium lauryl sulfate] |  |  |  |  | increase of OePPO activity versus absence of SDS ([2]; 5 mM SDS, phosphate buffer pH 7.5): ~10 fold; OePPO activity compared to the absence of SDS ([2]; 100 mM SDS, phosphate buffer pH 7.5): three times the activity; optimal SDS concentration for full activation of latent OePPO ([2]; phosphate buffer pH 7.5, catechol): 5 mM; SDS concentration necessary to achieve full activity (mango PPO): 6.93 mM; SDS concentration for full activation of latent PPO (apricot PPO): 2 mM; SDS concentration for full activation of latent PPO (banana PPO): 2 mM
[Cl-].[Cl-].[Zn+2] [ZnCl2] | 99 ± 1.2 | 108.9 ± 0.92 | 107.3 ± 0.54 | 15 ± 5.1 | relative activity (OePPO1; 5 mM metal salt, 50 mM sodium citrate buffer, 5 mM SDS, control without metal ions = 100%, listed as Zn^2+): 109%; relative activity (OePPO1; 100 mM metal salt, 50 mM sodium citrate buffer, 5 mM SDS, control without metal ions = 100%, listed as Zn^2+): drastically reduced
O=C1O[C@H]([C@@H](O)CO)C(O)=C1O [ascorbic acid] |  |  |  |  | concentration with complete inhibitory effect (mango PPO): around 1 mM; concentration with complete inhibitory effect (blueberry PPO): around 1 mM; concentration with complete inhibitory effect (apricot PPO): around 1 mM; IC100 ([1]; pH 7.5, 5 mM SDS): 1000 µM
O=C(O)CC(O)(CC(=O)O)C(=O)O [citric acid] |  |  |  |  | residual activity (mango PPO): > 60%; residual activity (apricot PPO): exceeding 80%
NCCc1ccc(O)c(O)c1 [dopamine] |  |  |  |  | kcat [3]: 13.98 ± 0.07 s^–1
N[C@@H](CCC(=O)N[C@@H](CS)C(=O)NCC(=O)O)C(=O)O [glutathione, reduced, reduced glutathione] |  |  |  |  | concentration with complete inhibitory effect (mango PPO): around 1 mM; concentration with complete inhibitory effect (blueberry PPO): around 1 mM; concentration with complete inhibitory effect (apricot PPO): around 1 mM; IC50 ([1]; 50 mM sodium phosphate buffer pH 7.5, 5 mM SDS, 25 °C, nonlinear regression): 62 ± 3 µM; concentration for complete suppression/inhibition of OePPO activity ([1]; pH 7.5, 5 mM SDS): 1 mM
O=S(O)S(=O)(=O)O [sodium metabisulfite] |  |  |  |  | concentration with complete inhibitory effect (mango PPO): around 1 mM; concentration with complete inhibitory effect (blueberry PPO): around 1 mM; concentration with complete inhibitory effect (apricot PPO): around 1 mM; IC100 ([1]; pH 7.5, 5 mM SDS): 1000 µM
O=C(O)CCC(=O)O [succinic acid] |  |  |  |  | residual activity (mango PPO): > 60%; residual activity (apricot PPO): exceeding 80%
NCCc1ccc(O)cc1 [tyramine] |  |  |  |  | kcat [3]: 0.093 ± 0.005 s^–1
OCCc1ccc(O)cc1 [tyrosol] |  |  |  |  | processed faster than tyramine ([3]; monophenolase activity, compared with tyramine): > 10 times
